This passage reports EC50 results from patent US8163739B2, “2-arylthiazole-4-carboxamide derivatives, their preparation and use as pharmaceuticals” (Bayer Pharma Aktiengesellschaft, priority 2007, dated 2012).

The subject of this experiment is TLR7. Briefly: TLR-induced cytokine release in human peripheral blood mononuclear cells (PBMC), TNF-alpha ELISA. The format is cell-based. Particulars: 18 hours incubation, TLR7 ligand, TNF-alpha by ELISA, read-out: EC50 (TNF-α TLR7). The protocol:
TLR-induced Cytokine Release in Human “Peripheral Blood Mononuclear Cells” (PBMC)
PBMCs isolated from human whole blood are stimulated using a TLR ligand.
The cytokine determination is carried out by means of ELISA kits; a proliferation/cell metabolism determination is carried out using Alamar Blue.
For the cell preparation, about 200 ml of blood are treated with an anticoagulant (e.g. citrate Monovettes). Per Leucosep tube, 15 ml of Histopaque (room temperature, RT) are poured in and forced downwards through the inserted frit by brief initial centrifugation (one minute at 1000×g, RT). 20 ml of blood are added to the tubes prepared in this way and centrifuged at 800×g for 15 minutes (RT). After centrifugation, the following layered arrangement results from the top to the bottom:
plasma-PBMC-Histopaque-filter disc-Histopaque-erythrocytes and granulocytes. The supernatant plasma is aspirated. The PBMC are transferred together with the underlying Histopaque to a new 50 ml tube, the contents of two Leucosep tubes always being added to one 50 ml tube. The 50 ml tubes are then filled to 50 ml with PBS. This cell suspension is centrifuged at 300×g (RT) for 10 minutes.
The liquid supernatant is tipped off and the cell pellet is resuspended with a little PBS and subsequently filled to 50 ml with PBS. This washing step is repeated twice. The resulting pellet is taken up in a defined volume of medium (with additives). For the testing of the substances, PBMC are incubated for 18 hours with titrated concentrations of the test substances, e.g. in the presence or absence of TLR7 or TLR9 ligands. On the next day, the supernatants are investigated for the content of TNF-alpha or other cyto- or chemokines by means of specific ELISA. The metabolic activity of the treated cells is determined with the aid of Alamar Blue.
Consider `CS(=O)(=O)c1cccc(-c2nc(C(=O)Nc3ccccc3C(N)=O)cs2)c1` [Example 3.2, N-[2-(Aminocarbonyl)phenyl]-2-(3-methylsulphonylphenyl)-4-thiazole-carboxamide], for which the EC50 worked out at 3400 nM.

Consider `COc1ccc(-c2nc(C(=O)Nc3ccccc3C(N)=O)cs2)cc1F` [Example 3.4, N-[2-(Aminocarbonyl)phenyl]-2-(3-fluoro-4-methoxyphenyl)-4-thiazole-carboxamide], for which the EC50 is 120 nM.

For the molecule `Cn1cc(NC(=O)c2csc(-c3cccc(S(C)(=O)=O)c3)n2)c(C(N)=O)n1` [Example 1.1, 2-(3-Methanesulphonylphenyl)thiazole-4-(3-carbamoyl-1-methyl-1H-pyrazol-4-yl)carboxamide], the EC50 stood at 85 nM.

As to `NC(=O)c1ccccc1NC(=O)c1csc(-c2ccc3c(c2)OCO3)n1` [Example 3.1, N-[2-(Aminocarbonyl)phenyl]-2-(3,4-methylenedioxyphenyl)-4-thiazolecarboxamide], the EC50 came out at 300 nM.

On to `CN1CCc2c(sc(NC(=O)c3csc(-c4ccc5c(c4)CCO5)n3)c2C(N)=O)C1` [Example 2.5, 2-{[2-(2,3-Dihydrobenzofuran-5-yl)thiazole-4-carbonyl]amino}-6-methyl-4,5,6,7-tetrahydrothieno[2,3-c]pyridine-3-carboxamide], for which the EC50 amounted to 1100 nM.

For `Cn1ncc(NC(=O)c2csc(-c3ccc4c(c3)CCO4)n2)c1C(N)=O` [Example 2.1, N-[5-(Aminocarbonyl)-1-methyl-1H-pyrazol-4-yl]-2-(2,3-dihydro-5-benzofuranyl)-4-thiazolecarboxamide], the EC50 amounted to 1200 nM.

For orientation: EC50 means the concentration needed to bring the measured effect to its halfway point.
